From patent US7491723B2, “Alkanol and cycloalkanol-amine derivatives and methods of their use” (Wyeth, priority 2003, dated 2009) come the findings set out here.

Counter-ions that a name gives are not always drawn.

One experiment deals with T1, human hNET (Homo sapiens, UniProt P23975).
T1 construct: expressed in transfected cells
T1 sequence (P23975 whole entry): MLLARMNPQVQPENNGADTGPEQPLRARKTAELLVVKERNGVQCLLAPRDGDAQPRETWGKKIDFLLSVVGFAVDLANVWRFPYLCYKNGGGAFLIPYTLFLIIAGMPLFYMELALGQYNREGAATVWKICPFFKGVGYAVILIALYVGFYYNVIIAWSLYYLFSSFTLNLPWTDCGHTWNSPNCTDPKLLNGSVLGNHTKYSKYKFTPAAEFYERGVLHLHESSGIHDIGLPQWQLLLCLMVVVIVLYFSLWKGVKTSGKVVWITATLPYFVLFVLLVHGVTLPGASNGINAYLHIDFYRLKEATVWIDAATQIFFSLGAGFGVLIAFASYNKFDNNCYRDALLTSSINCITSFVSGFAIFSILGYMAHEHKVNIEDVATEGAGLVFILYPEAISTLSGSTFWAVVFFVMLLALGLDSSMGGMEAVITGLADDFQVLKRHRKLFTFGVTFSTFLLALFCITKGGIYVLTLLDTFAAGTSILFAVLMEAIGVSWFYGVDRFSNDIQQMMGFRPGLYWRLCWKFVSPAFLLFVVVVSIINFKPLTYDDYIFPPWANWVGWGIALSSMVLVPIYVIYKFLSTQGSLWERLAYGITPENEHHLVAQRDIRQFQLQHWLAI
The experiment is described as follows: Norepinephrine (NE) uptake assay in MDCK-Net6 cells. It counts as cell-based. The following applies: 1 μM test compound, [3H]NE uptake. On the procedure:
MDCK-Net6 cells, stably transfected with human hNET (Pacholczyk, T., R. D. Blakely, and S. G. Amara, Nature, 1991, 350(6316): p. 350-4) were cultured in growth medium containing high glucose DMEM (Gibco, Cat. No. 11995), 10% FBS (dialyzed, heat-inactivated, US Bio-Technologies, Lot FBD1129HI) and 500 μg/ml G418 (Gibco, Cat. No. 10131). Cells were plated at 300,000/T75 flask and cells were split twice weekly. The JAR cell line (human placental choriocarcinoma) was purchased from ATCC (Cat. No. HTB-144). The cells were cultured in growth medium containing RPMI 1640 (Gibco, Cat. No. 72400), 10% FBS (Irvine, Cat. No. 3000), 1% sodium pyruvate (Gibco, Cat. No. 1136) and 0.25% glucose. Cells were plated at 250,000 cells/T75 flask and split twice weekly. For all assays, cells were plated in Wallac 96-well sterile plates (PerkinElmer, Cat. No. 3983498).
On day 1, cells were plated at 3,000 cells/well in growth medium and maintained in a cell incubator (37° C., 5% CO2). On day 2, growth medium was replaced with 200 μl of assay buffer (25 mM HEPES; 120 mM NaCl; 5 mM KCl; 2.5 mM CaCl2; 1.2 mM MgSO4; 2 mg/ml glucose (pH 7.4, 37° C.)) containing 0.2 mg/ml ascorbic acid and 10 μM pargyline. Plates containing cells with 200 μl of assay buffer were equilibrated for 10 minutes at 37° C. prior to addition of compounds. A stock solution of desipramine was prepared in DMSO (10 mM) and delivered to triplicate wells containing cells for a final test concentration of 1 μM. Data from these wells were used to define non-specific NE uptake (minimum NE uptake). Test compounds were prepared in DMSO (10 mM) and diluted in assay buffer according to test range (1 to 10,000 nM). Twenty-five microliters of assay buffer (maximum NE uptake) or test compound were added directly to triplicate wells containing cells in 200 μl of assay buffer. The cells in assay buffer with test compounds were incubated for 20 minutes at 37° C. To initiate the NE uptake, [^3H]NE diluted in assay buffer (120 nM final assay concentration) was delivered in 25 μl aliquots to each well and the plates were incubated for 5 minutes (37° C.). The reaction was terminated by decanting the supernatant from the plate. The plates containing cells were washed twice with 200 μl assay buffer (37° C.) to remove free radioligand. The plates were then inverted, left to dry for 2 minutes, then reinverted and air-dried for an additional 10 minutes. The cells were lysed in 25 μl of 0.25 N NaOH solution (4° C.), placed on a shake table and vigorously shaken for 5 minutes. After cell lysis, 75 μl of scintillation cocktail was added to each well and the plates were sealed with film tape. The plates were returned to the shake table and vigorously shaken for a minimum of 10 minutes to ensure adequate partitioning of organic and aqueous solutions. The plates were counted in a Wallac Microbeta counter (PerkinElmer) to collect the raw cpm data.
For each experiment, a data stream of cpm values collected from the Wallac Microbeta counter was downloaded to a Microsoft Excel statistical application program. Calculations of EC50 values were made using the transformed-both-sides logistic dose response program written by Wyeth Biometrics Department. The statistical program uses mean cpm values from wells representing maximum binding or uptake (assay buffer) and mean cpm values from wells representing minimum binding or uptake ((1 μM desipramine (hNET) or 1 μM paroxetine (hSERT)). Estimation of the EC50 value was completed on a log scale and the line was fit between the maximum and minimum binding or uptake values. All graphic data representation was generated by normalizing each data point to a mean percent based on the maximum and minimum binding or uptake values. The EC50 values reported from multiple experiments were calculated by pooling the raw data from each experiment and analyzing the pooled data as one experiment.
Broadly, the inhibition is the change of the read-out against control, counted positive when it falls. Regarding `CN1CCN(CC(c2cccc(Cl)c2)C(O)(C2CC2)C2CC2)CC1` (stereo not drawn) [Example 86, 2-(3-chlorophenyl)-1,1-dicyclopropyl-3-(4-methylpiperazin-1-yl)propan-1-ol dihydrochloride], testing at 1 µM gave an inhibition of 16%.
Still for that read-out and setting: the result for `OC1(C(CN2CCNCC2)c2cccc(Cl)c2)CCC2CCCCC2C1` (stereo not drawn) [Example 74, 2-[1-(3-chlorophenyl)-2-piperazin-1-ylethyl]decahydronaphthalen-2-ol dihydrochloride] reads 24%; that for `COc1ccc(C(CN2CCN(C)CC2)C2(O)CCC(C(C)(C)C)CC2)cc1Br` (stereo not drawn) [Example 73, 1-[1-(3-bromo-4-methoxyphenyl)-2-(4-methylpiperazin-1-yl)ethyl]-4-tert-butylcyclohexano dihydrochloride], 25%; that for `OC1(C(CN2CCNCC2)c2cccc(Cl)c2)CCOCC1` (stereo not drawn) [Example 77, 4-[1-(3-chlorophenyl)-2-piperazin-1-ylethyl]tetrahydro-2H-pyran-4-ol dihydrochloride], 31%.
Still for that read-out and setting: the result for `CC1(C)CC(C)(C)CC(O)(C(CN2CCNCC2)c2cccc(Cl)c2)C1` (stereo not drawn) [Example 277, 1-[1-(3-chlorophenyl)-2-piperazin-1-ylethyl]-3,3,5,5-tetramethylcyclohexanol dihydrochloride] reads 17%; that for `CN1CCN(CC(c2cccc(Cl)c2)C2CCCCC2)CC1` (stereo not drawn) [Example 231, 1-[2-(3-chlorophenyl)-2-cyclohexylethyl]-4-methylpiperazine dihydrochloride], 91.2%.
On the same count and under the same terms, the result for `CCCC(O)(CCC)C(CN1CCN(C)CC1)c1cccc(Br)c1` (stereo not drawn) [Example 82, 4-[1-(3-bromophenyl)-2-(4-methylpiperazin-1-yl)ethyl]heptan-4-ol dihydrochloride] reads 19%.
Take `CC(C)(C)C1CCC(O)(C(CN2CCNCC2)c2cccc(Cl)c2)CC1` (stereo not drawn) [Example 93, 4-tert-butyl-1-[1-(3-chlorophenyl)-2-piperazin-1-ylethyl]cyclohexanol dihydrochloride]: the inhibition at 1 µM amounted to 12%.
Same read-out and setting: then `CC1CCC(O)(C(CN2CCNCC2)c2cccc(Cl)c2)CC1` (stereo not drawn) [Example 334, 1-[1-(3-chlorophenyl)-2-piperazin-1-ylethyl]-4-methylcyclohexanol dihydrochloride], with 71.7%; and `Clc1cccc(C(CN2CCNCC2)C2CCCCCC2)c1` (stereo not drawn) [Example 234, 1-[2-(3-chlorophenyl)-2-cycloheptylethyl]piperazine dihydrochloride], with 67.7%.
Compound `CN1CCN(CC(c2cccc(Cl)c2)C2CCCC2)CC1` (stereo not drawn) [Example 227, 1-[2-(3-chlorophenyl)-2-cyclopentylethyl]-4-methylpiperazine dihydrochloride] showed an inhibition at 1 µM of 48.2%.
Compound `CCC1CCC(O)(C(CN2CCN(C)CC2)c2cccc(Cl)c2)CC1` (stereo not drawn) [Example 336, 1-[1-(3-chlorophenyl)-2-(4-methylpiperazin-1-yl)ethyl]-4-ethylcyclohexanol dihydrochloride] displayed an inhibition at 1 µM of 29%.
The same measure, in the same setting: the result for `OC1CCCCC1C(CN1CCNCC1)c1cccc(Cl)c1` (stereo not drawn) [Example 238, 2-[1-(3-chlorophenyl)-2-piperazin-1-ylethyl]cyclohexanol dihydrochloride] reads 72.9%.
Still for that read-out and setting: the result for `Clc1cccc(C(CN2CCNCC2)C2CCCC2)c1` (stereo not drawn) [Example 226, 1-[2-(3-chlorophenyl)-2-cyclopentylethyl]piperazine dihydrochloride] reads 53%.
The same measure, in the same setting: then `COc1ccc(C(CN2CCNCC2)C2(O)CCC(C(C)(C)C)CC2)cc1Br` (stereo not drawn) [Example 84, 1-[1-(3-bromo-4-methoxyphenyl)-2-piperazin-1-ylethyl]4-tert-butylcyclohexanol dihydrochloride], with 18%; and `CCC(O)(CC)C(CN1CCNCC1)c1cccc(Cl)c1` (stereo not drawn) [Example 52, 2-(3-chlorophenyl)-3-ethyl-1-piperazin-1-ylpentan-3-ol dihydrochloride], with 37%.
Consider `CCCC(O)(CCC)C(CN1CCNCC1)c1cccc(Cl)c1` (stereo not drawn) [Example 51, 4-[1-(3-chlorophenyl)-2-piperazin-1-ylethyl]heptan-4-ol dihydrochloride], for which 1 µM produced 44% inhibition.
Still for that read-out and setting: then `CN1CCN(CC(c2cccc(Cl)c2)C2(O)CC(C)(C)CC(C)(C)C2)CC1` (stereo not drawn) [Example 278, 1-[1-(3-chlorophenyl)-2-(4-methylpiperazin-1-yl)ethyl]-3,3,5,5-tetramethylcyclohexanol dihydrochloride], with 25%; and `CN1CCC(O)(C(CN2CCNCC2)c2cccc(Br)c2)CC1` (stereo not drawn) [Example 58, 4-[1-(3-bromophenyl)-2-piperazin-1-ylethyl]-1-methylpiperidin-4-ol dihydrochloride], with 35%; and `CN1CCN(CC(c2cccc(Cl)c2)C2(O)CCOCC2)CC1` (stereo not drawn) [Example 78, 4-[1-(3-chlorophenyl)-2-(4-methylpiperazin-1-yl)ethyl]tetrahydro-2H-pyran-4-ol dihydrochloride], with 22%.
Same read-out and setting: then `CN1CCC(O)(C(CN2CCNCC2)c2ccc(Cl)c(Cl)c2)CC1` (stereo not drawn) [Example 37, 4-[1-(3,4-dichlorophenyl)-2-piperazin-1-ylethyl]-1-methylpiperidin-4-ol trihydrochloride], with 57%; and `Clc1cccc(C(CN2CCNCC2)C2CCCCC2)c1` (stereo not drawn) [Example 230, 1-[2-(3-chlorophenyl)-2-cyclohexylethyl]piperazine dihydrochloride], with 88.3%; and `OC1(C(CN2CCNCC2)c2cccc(Cl)c2)CCCC2CCCCC21` (stereo not drawn) [Example 72, 1-[1-(3-chlorophenyl)-2-piperazin-1-ylethyl]decahydronaphthalen-1-ol dihydrochloride], with 25%.
Same read-out and setting: then `CCCC(O)(CCC)C(CN1CCNCC1)c1cccc(Br)c1` (stereo not drawn) [Example 81, 4-[1-(3-bromophenyl)-2-piperazin-1-ylethyl]heptan-4-ol dihydrochloride], with 18%; and `CCC(O)(CC)C(CN1CCNCC1)c1cccc(Br)c1` (stereo not drawn) [Example 50, 2-(3-bromophenyl)-3-ethyl-1-piperazin-1-ylpentan-3-ol dihydrochloride], with 89%; and `CN1CCN(CC(c2cccc(Cl)c2)C2CCCCCC2)CC1` (stereo not drawn) [Example 235, 1-[2-(3-chlorophenyl)-2-cycloheptylethyl]-4-methylpiperazine dihydrochloride], with 80.5%.
On to `CN1CCN(CC(c2cccc(Br)c2)C2(O)CCC(C(C)(C)C)CC2)CC1` (stereo not drawn) [Example 79, 1-[1-(3-bromophenyl)-2-(4-methylpiperazin-1-yl)ethyl]4-tert-butylcyclohexanol dihydrochloride], for which the inhibition at 1 µM stood at 20%.
Turning to `CCC(O)(CC)C(CN1CCN(C)CC1)c1ccc(OC)c(Br)c1` (stereo not drawn) [Example 66, 2-(3-bromo-4-methoxyphenyl)-3-ethyl-1-(4-methylpiperazin-1-yl)pentan-3-ol dihydrochloride], the inhibition at 1 µM turned out to be 26%.

Still in this experiment, the particulars now being: at 10 μM test compound, [3H]NE uptake.
The compound `CN1CCN(CC(c2cccc(Cl)c2)C2(O)CCCC3CCCCC32)CC1` (stereo not drawn) [Example 331, 1-[1-(3-chlorophenyl)-2-(4-methylpiperazin-1-yl)ethyl]decahydronaphthalen-1-ol dihydrochloride] showed an inhibition at 10 µM of 11.4%.
Same read-out and setting: then `OC1(C(CN2CCNCC2)c2cccc3ccccc23)CCC2CCCCC2C1` (stereo not drawn) [Example 329, 2-[1-(1-naphthyl)-2-piperazin-1-ylethyl]decahydronaphthalen-2-ol dihydrochloride], with 20.9%.
